The results in this text go back to US20080299590A1, “SHC protein-related methods and compositions” (Roger Williams Hospital, priority 2005, published 2008).

SMILES strings stand for the structures.

The subject of this test is breast cancer patients. Description: Shc Test TMA study: protection by adjuvant tamoxifen or chemotherapy by Shc risk group (multivariate survival models). It counts as in vivo, human. From the text: Materials and Methods: Patient samples included primary invasive tumor specimens from 4,326 British Columbian women in Tumor Micro-Array (TMA) format (no adjuvant therapy=1860; tamoxifen=1366; chemotherapy (AC, CMF, FAC, CEF)=744; relapsed=1752; died of disease=1334, average follow-up 13 yrs). Two additional sources were 65 primary tumor specimens from tamoxifen-only-treated patients (10 recurrences, 6.4 yrs average follow-up) from Roger Williams Medical Center (RWMC), and 32 (14 recurrences) from a published study (Massachusetts General Hospital (MGH)) (Ma et al., Cancer Cell, 5:1-10 (2004)). Immunohistochemistry (IHC) staining of the Shc proteins was scored on a continuous 0-5 scale by two pathologists, blinded to patient clinical data.
Analysis of relapse-free survival (RFS) and disease specific survival (DSS) used multivariate models under assumptions of both log-normality as well as proportionality of hazard rate.

In the case of `CC/C(=C(\c1ccccc1)c1ccc(OCCN(C)C)cc1)c1ccccc1` [tamoxifen], the “hazard ratio (HR) of tamoxifen therapy” value (12% of patients classified as high risk by the Shc Test, node positive patients) is given as 0.26. The benefit from tamoxifen result (63% patients in the low risk group by the Shc Test) is on record as “little benefit”.
